Laboratory results reported in patent US10022366B2, “Extending and maintaining micropore viability of microneedle treated skin with lipid biosynthesis inhibitors for sustained drug delivery” (University of Maryland, Baltimore, priority 2013, dated 2018).
Counter-ions that a name gives are not always drawn.

What was measured:
[1] = Pharmacokinetic studies of NTX after MN treatment with or without FLU; conditions: for AUC / Cmax / Tmax: hairless, guinea pig, plasma
[2] = Reversibility/recovery of pores by transepidermal water loss (TEWL); format: in vivo, hairless guinea pigs (HGP); conditions: after removal of occlusion at 7 days; compared among the 5 treatment sites; p>0.05
From the text: The reversibility/recovery of the pores following removal of occlusion was studied using transepidermal water loss (TEWL) in a HGP model. Five different sites were chosen on the dorsal region of an animal. […] All sites were marked and cleaned on the day of the treatment. […] The concentration and amount of NTX gel and FLU were consistent with the PK studies. A placebo gel was used for site 3 and site 4. The placebo gel was similar in composition to the NTX gel with 10% PG, 1% benzyl alcohol and 3% HEC as the gelling agent. […] All sites were occluded using a transdermal patch (148) secured in place with Bioclusive™ tape. […] All experiments were conducted at least in triplicate. Recovery of the skin, (i.e., regeneration of the barrier function of the SC) was studied using TEWL. These studies were carried out to look at the effect of the local concentration of FLU on the recovery/healing of the skin following removal of occlusion.

[3] = In vitro diffusion studies across MN treated skin (NTX flux, NTX and FLU skin concentration); format: in vitro ADME, Yucatan miniature pig; conditions: p>0.05
From the text: NTX and FLU were quantified using high pressure liquid chromatography (HPLC). The HPLC system consisted of a Waters 717 plus auto-sampler, a Waters 600 quaternary pump, and a Waters 2487 dual wavelength absorbance detector with Waters Empower™ software. A Perkin Elmer Brownlee™ Spheri 5 VL C18 column (5μ, 220×4.6 mm) and a C18 guard column (15×3.2 mm) were used with the UV detector set at a wavelength of 280 nm for NTX and 305 nm for FLU. The mobile phase consisted of 65:35 (v/v) ACN: (0.1% TFA with 0.065% 1-octane sulfonic acid sodium salt, adjusted to pH 3.0 with TEA aqueous phase). Samples were run at a flow rate of 1.5 ml/min. The injection volume used was […] for all samples.
In vitro studies were performed to look at the flux across MN treated skin and the skin concentrations of NTX and FLU in the skin. Full-thickness Yucatan miniature pig skin was used for all in vitro experiments. All pig tissue harvesting experiments were done under IACUC approved protocols at the University of Kentucky. Fresh skin was cleaned to remove excess subcutaneous fat, dermatomed and stored at −20° C. Skin was thawed and cut into small square pieces on the day of the diffusion experiment. The thickness was measured for each individual piece of skin and the average thickness of all treatment groups was maintained between 1.4-1.8 mm. Skin was next treated with a 5 MN in-plane array, 10 times in one direction and 10 times in a mutually perpendicular direction to generate a total of 100 MN insertions within the active treatment area of 0.95 cm^2. Five treatment groups were used based on the 4 different vehicles used for FLU and a control for NTX only; all studies were done in triplicate. […] All samples were analyzed using HPLC. The steady state flux of NTX was calculated using the steady state portion of the cumulative amount permeated vs. time plot. The skin concentrations of both drugs were also determined at the end of the study by extracting the drug overnight into 10 mL of ACN, and injecting the extracted sample onto the HPLC column after appropriate dilutions. […]

[4] = humans; cited from earlier work
[5] = cited from earlier work
[6] = Skin irritation by colorimetry (change in erythema, Δa*); format: in vivo, hairless guinea pigs (HGP); conditions: immediately following treatment or following removal of the patches at 7 days; among treatment groups; p>0.05
Description: Local skin irritation can be one of the major drawbacks of topical/transdermal delivery, so irritation studies were conducted to look at the effect of local FLU treatment of the skin in HGP. The studies were conducted using the same treatment groups as the recovery studies. Colorimeter (Chroma Meter CR-400, Konica, Minolta, Japan) readings were obtained, in triplicate, at each site before and immediately after the treatment. The data were used to record changes in the color of the skin from baseline based on 3 different color axes, the red-green axis (a*), the black-white axis (L*) and the yellow-blue axis (b*). […] The degree of redness of the skin or the change in erythema of the skin was measured by the change in the red green axis (Δa*) values. Skin irritation studies were conducted in triplicate.

[7] = Solubility of FLU in the deposition formulations; format: physicochemical; conditions: in the four deposition formulations (ethanol, acetone, PG-ethanol, PG-ethanol-water)
Description: (§1) In order to optimize FLU skin concentration and NTX flux, in certain embodiments, four different methods were chosen for FLU deposition. […] Ethanol (200 proof) was chosen for in vivo studies because it is a frequently used topical excipient and most of the 40 μl ethanol used was allowed to evaporate before application of the drug gel. […] The other two formulations tested contained either 70% or 25% PG. […] See Ghosh P. et al., 2013. Development of a codrug approach for sustained delivery across MN treated skin. […] See Milewski M., Stinchcomb A 2011. Vehicle Composition Influence on the MN-Enhanced Transdermal Flux of Naltrexone Hydrochloride. Pharmaceutical Research 28: 124-134. The formulations also contained large amounts of ethanol, a known permeation enhancer, and evaporation of the ethanol from these was not as efficient due to the presence of PG. Solubility of FLU was not an issue with any of the formulations. Therefore, in a preferred embodiment, 40 μl of 1.5% FLU in 200 proof ethanol was chosen as the vehicle for FLU deposition. Ethanol is a well-known chemical enhancer used in the topical/transdermal industry. It acts by replacing the water molecules in the lipid polar head groups as well as the protein regions of the SC, thus enhancing free volume and permeability of molecules across the skin. See Feingold K R 2009. The outer frontier: the importance of lipid metabolism in the skin. […]

[8] = Irritation in the MN-treated animal models (data not shown); format: in vivo; conditions: FLU deposition vehicle on MN-treated animal models
Description: as §1

[9] = using MN, humans, no pore lifetime enhancer; cited from earlier work
[10] = daily/alternate day topical application; compared to 2-3 days without pore lifetime enhancement agent; cited from earlier work
[11] = established positive control treatment in HGP, 0.5% solution; cited from earlier work

## CC(C)n1c(/C=C/C(O)CC(O)CC(=O)O)c(-c2ccc(F)cc2)c2ccccc21 (stereo not shown) [FLU, fluvastatin sodium]
[1]; NTX delivery across MN-treated skin with addition of FLU
  enhancement of drug delivery (window): 7 days
[2]
  recovery of the skin (TEWL enhancement ratio over baseline): no significant differences
[3]; irrespective of the method of FLU deposition, 1.5% FLU, 40 μl
  concentration of FLU in the skin: no significant difference
[4]
  oral bioavailability: 9-50%
[5]
  log P: 4.6
  pKa: 4.27
[6]
  change in erythema (Δa*): no significant differences
[7]
  solubility: not an issue

## CC(C)=O [Acetone, acetone]
[8]
  irritation: caused irritation

## O=C1CC[C@@]2(O)[C@H]3Cc4ccc(O)c5c4[C@@]2(CCN3CC2CC2)[C@H]1O5 [NTX, Naltrexone HCL]
[1]; NTX, FLU treatment group, throughout the range of the study (168 h)
  plasma concentrations: above 2 ng/mL
[1]; NTX, any of the three groups
  lag time with MN enhanced delivery: no lag time observed
[1]; NTX, patch system on MN treated skin
  time after treatment at which drug was quantified in plasma: ≤ 15 min
[1]; NTX, vehicle control (ethanol), beyond 144 h
  plasma concentrations: below 2 ng/mL
[1]; all study groups, HGP
  time for which detectable levels of NTX were present in the plasma: 72 h
[1]; ethanol treated group, at 7 days
  NTX concentration in the plasma: < 2 ng/mL
[1]; topical or ocular, 200 μL NTX gel, NTX in plasma, HGP, MN control: MN + NTX gel
  AUC: 614 ± 213 ng·h/mL
[1]; topical or ocular, 200 μL NTX gel, NTX in plasma, HGP, MN control: MN + 200 μL NTX gel, n=3
  Cmax: 39.4 ± 11.5 ng/mL
[1]; topical or ocular, 200 μL NTX gel, Tmax, NTX in plasma, HGP, MN control: MN + NTX gel
  Tmax: 2.8 ± 2 h
[1]; topical or ocular, NTX in plasma, HGP, Treatment group: MN + NTX gel + FLU in ethanol
  AUC: 1410 ± 1040 ng·h/mL
[1]; topical or ocular, NTX in plasma, HGP, Vehicle control: MN + NTX gel + ethanol
  AUC: 1700 ± 1670 ng·h/mL
[1]; topical or ocular, NTX in plasma, HGP, Treatment group: MN + 300 μL NTX gel + 40 μL FLU in ethanol (200 proof), n=3
  Cmax: 38.1 ± 19.7 ng/mL
[1]; topical or ocular, NTX in plasma, HGP, Vehicle control: MN + 300 μL NTX gel + 40 μL ethanol (200 proof), n=4
  Cmax: 39.3 ± 19.2 ng/mL
[1]; topical or ocular, Tmax, NTX in plasma, HGP, Treatment group: MN + NTX gel + FLU in ethanol
  Tmax: 2.7 ± 3.8 h
[1]; topical or ocular, Tmax, NTX in plasma, HGP, Vehicle control: MN + NTX gel + ethanol
  Tmax: 1.4 ± 1.7 h
[1]; topical, Tmax or time to maximum plasma concentration, NTX, all studies
  Tmax: 0.25 to 4 h
[1]; vehicle control group, until 144 hours
  NTX levels: above 2 ng/ml
[3]; NTX flux compared among the 5 treatment groups (4 FLU vehicles, NTX only control)
  flux across MN treated skin: no significant difference
[3]; irrespective of the method of FLU deposition
  concentration of NTX in the skin: no significant difference
[9]
  duration of delivery at therapeutic levels: 2 to 3 days

## O=C(O)Cc1ccccc1Nc1c(Cl)cccc1Cl [diclofenac, diclofenac sodium]
[10]
  period of drug delivery following MN treatment: 7 days

## CCCCCCCCCCCCOS(=O)(=O)[O-].[Na+] [sodium lauryl sulfate]
[11]
  Δa* value: 12.3
